# Publication PMC10916352, “Safety Evaluation of a Prototypical Diazirine-Based Covalent Crosslinker and Molecular Adhesive” (International Journal of Toxicology, 2023)
# Where “and” joins values, the source holds several entries; their conditions need not be identical. Equal values may be shown once.
# Key:
# [1] = system: Balb/c 3T3 fibroblasts (clone 31); test: 3T3 Neutral Red uptake cytotoxicity and phototoxicity assay; conditions: for Corrected Mean OD540: 8 wells
# Description: (§1) The 3T3 Neutral Red uptake assay was used to evaluate the phototoxicity of BondLynx. The NRU assay makes use of Neutral Red dye, a weak cationic dye that penetrates the cell membrane by non-ionic passive diffusion and accumulates in lysosomes. Cytotoxicity of the test material is evaluated by measuring the OD540 to assess the uptake of Neutral Red dye.[28],[29] […] By measuring cytotoxicity in the absence vs presence of UV and visible light, the phototoxicity of the test material can be determined.[30],[31]
# (§2) Cells were routinely trypsinized and passaged, at least once weekly, with a split ratio 1:3 to 1:4 to achieve a near confluent culture.
# (§3) Stock solutions of both controls were freshly prepared on the day of testing. The vehicle control was 1% DMSO in EBSS for the positive control, EBSS for the negative control, and .5% ethanol in EBSS for BondLynx. BondLynx was dissolved in ethanol for testing. […] All controls and BondLynx were handled in the dark and tested in 8-fold.
# (§4) In preparation for testing, cultures of 3T3 fibroblasts were trypsinized and resuspended in culture medium. […] A total of six plates were prepared in this manner – two each for the positive control, the negative control, and BondLynx. Following incubation, the cell culture medium was removed, and the wells washed with DPBS (Dulbecco’s phosphate-buffered saline). A 200 μL aliquot of each dilution of the test compound (BondLynx or a control) was added the first eight columns, and the appropriate vehicle control was added to the last four columns. All plates were incubated an additional 60 min before irradiating one plate for each test compound (+Irr) in a solar simulator with a WG320 nm filter for 22 min (equivalent to 5 J/cm^2 UV-A), while the second plate for each test compound (–Irr) was kept in the dark at room temperature. Subsequently, the test solutions were removed from the plates, and the cells were washed once with DPBS and suspended in 200 μL of supplemented DMEM to incubate for an additional 20-24 h.
# (§5) Immediately following incubation, the confluency of each plate was visually assessed, and the culture medium was replaced with 100 μL of Neutral Red dye (50 μg/mL). The plates were incubated another 3.5 h before removing the dye, washing with 150 μL of DPBS, and shaking for 20-40 min in 150 μL Neutral Red destain solution (ethanol:acetic acid:distilled water, 50:1:49). The optical density at 540 nm was measured for each well and corrected by subtracting the appropriate blank.
# [2] = as above; conditions: mouse, Balb/c 3T3 fibroblasts (clone 31); for viability: Viability of cells over all tested concentrations, .316 to 1000 μg/mL
# Description: as §1, §2, §3, §4, §5
# [3] = system: EpiDerm Skin Model (human-derived epidermal keratinocytes); test: In vitro skin corrosion test, MTT viability; conditions: for OD570 / OD570 corrected: tissues A and B, triplicate readings
# Description: (§6) The skin corrosion test was performed to assess the cytotoxic effects of BondLynx immediately following short-term exposure to the stratum corneum of the epidermis using an in vitro skin model.[32]–[34] Cytotoxicity to the skin model was expressed as the reduction of mitochondrial dehydrogenase activity measured by formazan production from 3-(4,5-dimethylthiazol-2-yl)-2,5-diphenyl tetrazolium bromide (MTT). […] BondLynx was checked for direct MTT reduction by incubating at least 50 mg of BondLynx with 1 mL MTT for 3 h to ensure that no blue/purple colour change or precipitate occurred. BondLynx was tested for colour interference by incubating at least 50 mg of BondLynx in water for 1 h and isopropanol for 2-3 h, centrifuging for 30 s at 16,000 g, and measuring the OD570 to ensure an optical density ≤.08 (after subtracting a Milli-Q water blank).
# (§7) Incubations were performed at 37.0-37.3°C, in an atmosphere with 77%-95% humidity containing 5.0 ± .5% CO2 in air unless otherwise stated. The positive control was 8.0 N aqueous potassium hydroxide (KOH) solution, and the negative control was Milli-Q water. BondLynx was applied directly to the test system as a solid and spread to match the size of the tissue. Tests were performed in duplicate.
# (§8) Skin tissue samples were refrigerated for 1 day upon receipt before placing in a six-well plate with .9 mL supplemented DMEM (just enough to reach the bottom of the tissue) 1 h before testing. A total of four samples were prepared per test item by applying 50 μL of the positive or negative control, or 25 μL of Milli-Q water (to moisten the tissue and ensure close contact) followed by 34.2-39.8 mg of BondLynx. Two samples of each test item were incubated for 3 min at room temperature, while the remaining samples were incubated for 1 h. After exposure, tissues were washed with phosphate buffered saline, dried carefully, and stored in 300 μL DMEM in a 24 well plate until the full six-well plate was dosed and rinsed.
# (§9) Cell viability after incubation was determined by replacing the DMEM with 300 μL MTT in supplemented DMEM (1 mg/mL) and incubating for 3 h. Tissues were then washed with phosphate buffer saline, and formazan was extracted with 2 mL isopropanol overnight. The amount of extracted formazan was measured in triplicate for each sample by the OD570.
# (§10) Optical density readings were corrected by subtracting the mean blank OD570. Cell viability was calculated as the percentage of the mean corrected OD570 for the test compound relative to the mean OD570 for the negative control (% Viability = ODtest/ODnegative control × 100%).
# [4] = In vitro skin corrosion test, MTT viability; conditions: human, EpiDerm Skin Model (reconstructed human epidermis)
# Description: as §6, §7, §8, §9, §10
structure (smiles),measurement,setting,value
"FC(F)(F)C1(c2ccc(C(c3ccc(C4(C(F)(F)F)N=N4)cc3)(C(F)(F)F)C(F)(F)F)cc2)N=N1 [BondLynx, 2,2-bis-[4-[3-(trifluoromethyl)-3H-diazirin-3-yl]phenyl]hexafluoropropane]",Phototoxicity classification,[1]; 3T3 NRU phototoxicity test,non-phototoxic
same,Corrected Mean OD540,"[1]; +Irr, 0.316 μg/mL",1.135
same,Corrected Mean OD540,"[1]; +Irr, 1 μg/mL",1.116
same,Corrected Mean OD540,"[1]; +Irr, 3.16 μg/mL",1.13
same,Corrected Mean OD540,"[1]; +Irr, 10 μg/mL",1.149
same,Corrected Mean OD540,"[1]; +Irr, 31.6 μg/mL",1.19
same,Corrected Mean OD540,"[1]; +Irr, 100 μg/mL",1.236
same,Corrected Mean OD540,"[1]; +Irr, 316 μg/mL",1.24
same,Corrected Mean OD540,"[1]; +Irr, 1000 μg/mL",1.18
same,"IC50 (50% inhibition of Neutral Red uptake), presence of irradiation","[1]; +Irr, 5 J/cm^2 UV-A",no IC50
same,Photo Irritation Factor (PIF),[1]; non-irradiated IC50 divided by irradiated IC50,no PIF could be calculated
same,Cytotoxicity,"[1]; presence and absence of UV-A, .316 to 1000 μg/mL",no cytotoxicity
same,"IC50 (50% inhibition of Neutral Red uptake), absence of irradiation",[1]; –Irr,no IC50
same,Corrected Mean OD540,"[1]; –Irr, 0.316 μg/mL",1.17
same,Corrected Mean OD540,"[1]; –Irr, 1 μg/mL",1.16
same,Corrected Mean OD540,"[1]; –Irr, 3.16 μg/mL",1.15
same,Corrected Mean OD540,"[1]; –Irr, 10 μg/mL",1.12
same,Corrected Mean OD540,"[1]; –Irr, 31.6 μg/mL",1.13
same,Corrected Mean OD540,"[1]; –Irr, 100 μg/mL",1.15
same,Corrected Mean OD540,"[1]; –Irr, 316 μg/mL",1.16
same,Corrected Mean OD540,"[1]; –Irr, 1000 μg/mL",1.07
same,"viability at 82 min, 0.316 μg/mL","[2]; Viability (%), +Irr",101%
same,"viability at 82 min, 1 μg/mL","[2]; Viability (%), +Irr",99.6%
same,"viability at 82 min, 3.16 μg/mL","[2]; Viability (%), +Irr",101%
same,"viability at 82 min, 10 μg/mL","[2]; Viability (%), +Irr",103%
same,"viability at 82 min, 31.6 μg/mL","[2]; Viability (%), +Irr",106%
same,viability at 100 μg/mL,"[2]; Viability (%), +Irr, 100 μg/mL",110%
same,"viability at 82 min, 316 μg/mL","[2]; Viability (%), +Irr",111%
same,"viability at 82 min, 1000 μg/mL","[2]; Viability (%), +Irr",105%
same,"viability at 82 min, 0.316 μg/mL","[2]; Viability (%), –Irr",102%
same,"viability at 82 min, 1 μg/mL","[2]; Viability (%), –Irr",101%
same,"viability at 82 min, 3.16 μg/mL","[2]; Viability (%), –Irr",100%
same,"viability at 82 min, 10 μg/mL","[2]; Viability (%), –Irr",97.4%
same,"viability at 82 min, 31.6 μg/mL","[2]; Viability (%), –Irr",98.3%
same,"viability at 82 min, 100 μg/mL","[2]; Viability (%), –Irr, 100 μg/mL",100%
same,"viability at 82 min, 316 μg/mL","[2]; Viability (%), –Irr",101%
same,"viability at 82 min, 1000 μg/mL","[2]; Viability (%), –Irr",93%
same,viability,[2]; Irr+,105 ± 4%
same,viability,[2]; Irr−,99 ± 3%
same,Mean ± SD (OD570 corrected),[3]; 3 min exposure,1.7 ± 0.1
same,OD570,[3]; 3 min exposure,1.8819 and 1.869 and 1.8445 and 1.7365 and 1.7069 and 1.7026
same,OD570 corrected,[3]; 3 min exposure,1.837 and 1.8241 and 1.7996 and 1.6916 and 1.662 and 1.6577
same,Mean ± SD (OD570 corrected),[3]; 1 h exposure,1.85 ± .09
same,OD570,[3]; 1 h exposure,1.9919 and 1.9396 and 1.9528 and 1.8727 and 1.8128 and 1.8033
same,OD570 corrected,[3]; 1 h exposure,1.947 and 1.8947 and 1.9079 and 1.8278 and 1.7679 and 1.7584
same,Skin corrosion classification,[3]; viability >50% after 3 min and >15% after 1 h,not corrosive
same,viability at 3 min,[4],101%
same,viability at 1 h,[4],95%
